Converted amounts (≈) assume the structure as drawn.
Legend:
[1] = test system: Mycobacterium tuberculosis; assay: MMV: CRC and MIC90 against Mtb (replicating); assay type: functional
[2] = test system: Mycobacterium tuberculosis; assay: MMV: Screen against Mtb, single point, non replicating, at 25uM; assay type: functional
[3] = test system: Mycobacterium tuberculosis; assay: MMV: Screen against Mtb, single point, replicating, at 25uM; assay type: functional
[4] = MMV: Cytotoxicity CRC and LD50 against HepG2; assay type: toxicity, cell-based; settings: human, HepG2 cells; read-out: LD50 (the source's name)
[5] = test system: Mycobacterium tuberculosis; assay: MMV: CRC and MIC90 against Mtb (non replicating); assay type: functional

## OC(CNCc1ccccc1)Cn1c2ccccc2c2ccccc21 (stereo not given)
[1]
  MIC90: 20.1 µM (≈ 6.64 µg/mL)
[2]
  inhibition at 25 µM: 14.3%
[3]
  inhibition at 25 µM: 90.3%
[4]
  CC50: 5.69 µM
[5]
  MIC90: > 100 µM

## CC(=O)c1ccc(NC(=O)CSc2nc(-c3ccccc3Cl)ns2)cc1
[1]
  MIC90: 14 µM (≈ 5.65 µg/mL)
[2]
  inhibition at 25 µM: 13.4%
[3]
  inhibition at 25 µM: 96.2%
[4]
  CC50: 41 µM
[5]
  MIC90: > 100 µM

## O=C(NC1CCN(Cc2ccccc2)CC1)c1cc(-c2ccncc2)nc2ccc(Cl)cc12
[1]
  MIC90: 32.5 µM (≈ 14.9 µg/mL)
[2]
  inhibition at 25 µM: 20.6%
[3]
  inhibition at 25 µM: 66%
[4]
  CC50: 7.1 µM
[5]
  MIC90: > 100 µM

## CC(C)(C)CC(C)(C)NCC(O)COc1ccc(Cl)cc1Cl (stereo not given)
[1]
  MIC90: 4.47 µM (≈ 1.56 µg/mL)
[2]
  inhibition at 25 µM: 30.2%
[3]
  inhibition at 25 µM: 98.5%
[4]
  CC50: 3.51 µM
[5]
  MIC90: 40.2 µM (≈ 14 µg/mL)

## Cc1ccc2c(C)nc(Nc3nc(C)cc(-c4ccccc4)n3)nc2c1
[1]
  MIC90: 18.6 µM (≈ 6.35 µg/mL)
[2]
  inhibition at 25 µM: 24.2%
[3]
  inhibition at 25 µM: 96.8%
[4]
  CC50: > 100 µM
[5]
  MIC90: 57.9 µM (≈ 19.8 µg/mL)

## COCCNCC(O)Cn1c2ccc(Cl)cc2c2cc(Cl)ccc21 (stereo not given)
[1]
  MIC90: 11.6 µM (≈ 4.26 µg/mL)
[2]
  inhibition at 25 µM: 26.7%
[3]
  inhibition at 25 µM: 99.4%
[4]
  CC50: 3.92 µM
[5]
  MIC90: 56.1 µM (≈ 20.6 µg/mL)

## CCCCCn1c(=N)n(CC(O)COc2cccc(C)c2)c2ccccc21 (stereo not given)
[1]
  MIC90: 23 µM (≈ 8.45 µg/mL)
[2]
  inhibition at 25 µM: 8.77%
[3]
  inhibition at 25 µM: 96.5%
[4]
  CC50: 4.92 µM
[5]
  MIC90: > 100 µM

## CCCCCCn1c(=N)n(CC(O)COc2cccc(C)c2)c2ccccc21 (stereo not given)
[1]
  MIC90: 9.69 µM (≈ 3.7 µg/mL)
[2]
  inhibition at 25 µM: 31.3%
[3]
  inhibition at 25 µM: 98.5%
[4]
  CC50: 3.27 µM
[5]
  MIC90: 27.9 µM (≈ 10.6 µg/mL)

## Cc1nc2ccccc2c(O)c1CC=C(Cl)Cl
[1]
  MIC90: 14.3 µM (≈ 3.83 µg/mL)
[2]
  inhibition at 25 µM: 0.782%
[3]
  inhibition at 25 µM: 91%
[4]
  CC50: 98.8 µM
[5]
  MIC90: > 100 µM

## CCOc1ccc2nc(C)cc(Nc3ccc(N(C)C)cc3)c2c1
[1]
  MIC90: 38.3 µM (≈ 12.3 µg/mL)
[2]
  inhibition at 25 µM: 15.7%
[3]
  inhibition at 25 µM: 78%
[4]
  CC50: 7.38 µM
[5]
  MIC90: 67.4 µM (≈ 21.7 µg/mL)

## CC(C)(C)CC(C)(C)NCC(O)COc1ccc2c(c1)CCC2 (stereo not given)
[1]
  MIC90: 35.6 µM (≈ 11.4 µg/mL)
[2]
  inhibition at 25 µM: -3.5%
[3]
  inhibition at 25 µM: 70.7%
[4]
  CC50: 8.32 µM
[5]
  MIC90: > 100 µM

## CCCCOC(=O)c1ccc(Nc2cc(C)nc3ccc(OC)cc23)cc1
[1]
  MIC90: 94.9 µM (≈ 34.6 µg/mL)
[2]
  inhibition at 25 µM: 24.7%
[3]
  inhibition at 25 µM: 96.5%
[4]
  CC50: 6.93 µM
[5]
  MIC90: > 100 µM

## CCOC(=O)c1cnc2ccc(OC)cc2c1Nc1ccc(N2CCN(C)CC2)cc1
[1]
  MIC90: 35.9 µM (≈ 15.1 µg/mL)
[2]
  inhibition at 25 µM: 31.3%
[3]
  inhibition at 25 µM: 78.8%
[4]
  CC50: 22.8 µM
[5]
  MIC90: > 100 µM

## COc1ccc(Nc2cc(C)nc(NCc3ccccc3)n2)cc1
[1]
  MIC90: 18 µM (≈ 5.77 µg/mL)
[2]
  inhibition at 25 µM: 22.6%
[3]
  inhibition at 25 µM: 95.5%
[4]
  CC50: 6.9 µM
[5]
  MIC90: > 100 µM

## CCN(CC)CCCNc1nc(-c2ccc(Cl)cc2)nc2ccccc12
[1]
  MIC90: 24.7 µM (≈ 9.11 µg/mL)
[2]
  inhibition at 25 µM: 17.1%
[3]
  inhibition at 25 µM: 95.3%
[4]
  CC50: 2.72 µM
[5]
  MIC90: > 100 µM

## COc1ccc(-c2cc(=O)oc3c4c(ccc23)OCN(Cc2ccc(F)cc2)C4)cc1
[1]
  MIC90: 37.5 µM (≈ 15.7 µg/mL)
[2]
  inhibition at 25 µM: 22.3%
[3]
  inhibition at 25 µM: 90.5%
[4]
  CC50: 40.5 µM
[5]
  MIC90: > 100 µM

## N=c1n(CCN2CCCCC2)c2ccccc2n1CC(=O)c1ccc(Cl)c(Cl)c1
[1]
  MIC90: 21.1 µM (≈ 9.1 µg/mL)
[2]
  inhibition at 25 µM: 17.6%
[3]
  inhibition at 25 µM: 96.3%
[4]
  CC50: 6.5 µM
[5]
  MIC90: > 100 µM

## O=C(Nc1ccc(Cl)c(Cl)c1)Nc1ccc(Cl)c(Cl)c1
[1]
  MIC90: 3.89 µM (≈ 1.36 µg/mL)
[2]
  inhibition at 25 µM: 99.8%
[3]
  inhibition at 25 µM: 92.6%
[4]
  CC50: 6.5 µM
[5]
  MIC90: 10.3 µM (≈ 3.61 µg/mL)

## Cc1cc(N(C)C)nc(Nc2ccc(NC(=O)Nc3ccccc3)cc2)n1
[1]
  MIC90: 19.3 µM (≈ 7 µg/mL)
[2]
  inhibition at 25 µM: 3.62%
[3]
  inhibition at 25 µM: 98.1%
[4]
  CC50: 11.2 µM
[5]
  MIC90: > 100 µM

## Cc1cc(Nc2ccc(OCc3ccccc3)cc2)nc2cc(O)ccc12
[1]
  MIC90: 19.9 µM (≈ 7.09 µg/mL)
[2]
  inhibition at 25 µM: 10%
[3]
  inhibition at 25 µM: 99.8%
[4]
  CC50: 8.16 µM
[5]
  MIC90: 50 µM (≈ 17.8 µg/mL)

## COc1ccc(Nc2nc(NCc3ccccc3)c3ccccc3n2)cc1
[1]
  MIC90: 7.33 µM (≈ 2.61 µg/mL)
[2]
  inhibition at 25 µM: 53.9%
[3]
  inhibition at 25 µM: 98%
[4]
  CC50: 2.59 µM
[5]
  MIC90: 48.7 µM (≈ 17.4 µg/mL)

## C[n+]1c2ccccc2nc2ccc(NCCO)cc21
[1]
  MIC90: 6 µM
[2]
  inhibition at 25 µM: 37.7%
[3]
  inhibition at 25 µM: 84.9%
[4]
  CC50: 6.65 µM
[5]
  MIC90: > 100 µM

## CCOc1ccc2nc(C)cc(Nc3ccc(Br)cc3)c2c1
[1]
  MIC90: 18.7 µM (≈ 6.68 µg/mL)
[2]
  inhibition at 25 µM: 11.1%
[3]
  inhibition at 25 µM: 95.7%
[4]
  CC50: 3.95 µM
[5]
  MIC90: > 100 µM

## CSc1ccccc1C(=O)Nc1nc(-c2ccccn2)cs1
[1]
  MIC90: 51.2 µM (≈ 16.8 µg/mL)
[2]
  inhibition at 25 µM: 66.8%
[3]
  inhibition at 25 µM: 68.2%
[4]
  CC50: 12.1 µM
[5]
  MIC90: 79 µM (≈ 25.9 µg/mL)

## Clc1cc(Br)ccc1-c1ccc(CNCC2CCNCC2)o1
[1]
  MIC90: 29.3 µM (≈ 11.2 µg/mL)
[2]
  inhibition at 25 µM: 34.2%
[3]
  inhibition at 25 µM: 86.5%
[4]
  CC50: 1.78 µM
[5]
  MIC90: > 100 µM

## Cc1cc(N2CCCC2)nc(Nc2ccc(NC(=O)CCc3ccccc3)cc2)n1
[1]
  MIC90: 14 µM (≈ 5.62 µg/mL)
[2]
  inhibition at 25 µM: 9.94%
[3]
  inhibition at 25 µM: 82.1%
[4]
  CC50: 2.64 µM
[5]
  MIC90: > 100 µM

## O=C1c2ccc3c4c(ccc(c24)C(=O)N1CCCCO)C(=O)N(CCCCO)C3=O
[1]
  MIC90: 36.5 µM (≈ 15 µg/mL)
[2]
  inhibition at 25 µM: 39.6%
[3]
  inhibition at 25 µM: 89.3%
[4]
  CC50: 0.904 µM
[5]
  MIC90: 79.1 µM (≈ 32.5 µg/mL)

## Cc1ccc(Nc2nc(N)c3ccccc3n2)cc1Cl
[1]
  MIC90: 24.7 µM (≈ 7.03 µg/mL)
[2]
  inhibition at 25 µM: 7.17%
[3]
  inhibition at 25 µM: 96.6%
[4]
  CC50: 10.9 µM
[5]
  MIC90: > 100 µM

## Brc1ccc(Nc2nc3ccccc3nc2Nc2ccc(Br)cc2)cc1
[1]
  MIC90: 3.73 µM (≈ 1.75 µg/mL)
[2]
  inhibition at 25 µM: 100%
[3]
  inhibition at 25 µM: 101%
[4]
  CC50: 2.69 µM
[5]
  MIC90: 11.5 µM (≈ 5.41 µg/mL)

## Nc1ccc(-c2nc3cc(Cc4ccc5[nH]c(-c6ccc(N)cc6)nc5c4)ccc3[nH]2)cc1
[1]
  MIC90: 10.9 µM (≈ 4.69 µg/mL)
[2]
  inhibition at 25 µM: 41.4%
[3]
  inhibition at 25 µM: 94%
[4]
  CC50: 2.45 µM
[5]
  MIC90: > 100 µM

## CC1CCN(Cc2ccc(NC(=O)c3cc4ccc5cccnc5c4[nH]3)cc2)CC1
[1]
  MIC90: 33.3 µM (≈ 13.3 µg/mL)
[2]
  inhibition at 25 µM: 13.8%
[3]
  inhibition at 25 µM: 75.1%
[4]
  CC50: 4.42 µM
[5]
  MIC90: > 100 µM

## Nc1ccc(-c2nc3cc(Oc4ccc(Oc5ccc6[nH]c(-c7ccc(N)cc7)nc6c5)cc4)ccc3[nH]2)cc1
[1]
  MIC90: 19.2 µM (≈ 10.1 µg/mL)
[2]
  inhibition at 25 µM: 11.8%
[3]
  inhibition at 25 µM: 98.8%
[4]
  CC50: 5.37 µM
[5]
  MIC90: > 100 µM

## Cc1ccc2cc3c(N)c4c(C)ccc(C)c4nc3nc2c1
[1]
  MIC90: 6.06 µM (≈ 1.74 µg/mL)
[2]
  inhibition at 25 µM: 7.35%
[3]
  inhibition at 25 µM: 101%
[4]
  CC50: 2.84 µM
[5]
  MIC90: > 100 µM

## O=C(Nc1cccc(C(F)(F)F)c1)c1cc(Cl)ccc1O
[1]
  MIC90: 3.87 µM (≈ 1.22 µg/mL)
[2]
  inhibition at 25 µM: 102%
[3]
  inhibition at 25 µM: 95.9%
[4]
  CC50: 0.99 µM
[5]
  MIC90: 3.46 µM (≈ 1.09 µg/mL)

## COc1ccc(C2NCCc3c2[nH]c2ccccc32)cc1CN1CCN(c2ccc(F)cc2)CC1 (stereo not given)
[1]
  MIC90: 25.9 µM (≈ 12.2 µg/mL)
[2]
  inhibition at 25 µM: 15.9%
[3]
  inhibition at 25 µM: 87.9%
[4]
  CC50: 2.28 µM
[5]
  MIC90: > 100 µM

Reference: ChEMBL document CHEMBL2094260, “Malaria Box Tuberculosis Screening Data”
